melting point [°C] | Compound
44 to 46 | COCCNC(C)(C)CO
145 to 147 | COc1ccc(C(C)(C#N)NC(=O)C(F)(F)F)cc1OC (stereo not drawn)
102 to 104 | Nc1nc(-c2ccccc2F)cs1
229 to 231 | CC(C)(C)OC(=O)N1CCc2[nH]c(=O)c(S(C)(=O)=O)cc2C1
154 to 156 | CC(C)NC(N)=O
299 to 301 | COc1cc(OC)c2ncc(C(=O)O)c(O)c2c1
260 to 262 | Cc1ccc2[nH]c(=O)n3nc(C4CC4)nc3c2c1
180 to 182 | O=C(O)c1sccc1S(=O)(=O)Nc1ccc(F)cc1
146 to 148 | Cc1sc(N)nc1-c1ccc(Cl)cc1
106 to 108 | NNC(=O)C1COCCO1 (stereo not drawn)
88 to 90 | CS(=O)(=O)NCc1ccccn1
118 to 120 | C=CC(=O)NCc1ccc(F)cc1
129 to 131 | NCCCN1C(=O)NC2(CCCC2)C1=O
176 to 178 | N#Cc1c(NC(=O)CCl)sc2c1CCC2
37 to 39 | CCOC(=O)c1cc(Cl)ccc1[N+](=O)[O-]
74 to 76 | CC(C)(C)OC(=O)N1CCCC(COCC(=O)O)C1 (stereo not drawn)
89 to 91 | CC1(C)CCCCC1=CC(=O)O
33 to 35 | CC1C=C(C(=O)O)CC1 (stereo not drawn)
265 to 267 | CC(=O)Nc1ccc(NS(C)(=O)=O)c(C(=O)O)c1
146 to 148 | Cc1ccc(-c2csc(CC(N)=NO)n2)cc1

melting point [°C] | Compound
178 to 180 | O=C(O)c1cnn(-c2ncccc2Cl)c1C(F)F
149 to 151 | COC(=O)c1c(N)sc2c1CCC2
193 to 195 | Sc1nnnn1CCc1ccccn1
49 to 51 | N#CSCC(=O)c1ccccc1C(F)(F)F
248 to 252 | O=c1[nH]c(CCl)nc2c(Br)cc(Br)cc12
92 to 94 | Cc1nn(-c2ccccc2)c(Oc2ccccc2)c1C=O
185 to 187 | COc1cccc(-c2nnc(N)o2)c1OC
74 to 76 | COc1cccc(-c2nonc2N)c1
201 to 203 | CC1=CC(=O)N(c2ccc(C(=O)O)cc2)C1=O
90 to 92 | NNC(=O)CC(F)(F)F
322 to 324 | N#Cc1cn(-c2ccc([N+](=O)[O-])cn2)nc1N
235 to 237 | NC(=O)c1cc(-c2csc(N)n2)c[nH]1
163 to 165 | Cc1nc(NN)c2cc(-c3ccccc3)sc2n1
171 to 173 | COc1ccc(C)cc1N1CC(C(=O)O)CC1=O (stereo not drawn)
117 to 119 | CS(=O)(=O)Nc1cccc2c1CCCN2
103 to 106 | C=CC(=O)Nc1ccccc1
229 to 231 | O=c1ccnc(-c2cccc(O)c2)[nH]1
301 to 303 | Cc1cc(O)c(C#N)c(C)n1
47 to 49 | CN(C)S(=O)(=O)c1cccc(N=C=S)c1
101 to 103 | N#Cc1ccc(N2CCCC(N)C2=O)cc1 (stereo not drawn)

melting point [°C] | Compound
129 to 131 | Nc1cccc(CN2CCOCC2)n1
124 to 126 | CNC(=O)c1cc(Oc2cccc(O)c2)ccn1
110 to 112 | Cc1ccc(N2C(=O)NC(=O)C2C)cc1 (stereo not drawn)
173 to 175 | CCn1c(SCC(=O)O)nnc1-c1ccco1
69 to 71 | NCC(=O)N1CCN(c2ccccc2)CC1
107 to 109 | Cn1ccnc1-c1ccc([N+](=O)[O-])cc1
123 to 125 | CCSc1ccc(C(=O)O)cn1
90 to 92 | CC(C)(C)n1ncc(C#N)c1N
203 to 207 | Cc1ccccc1Nc1nc(N)nc(CCl)n1
295 to 297 | Cc1ccc(C)c(SCc2nc3sc(C(=O)O)c(C)c3c(=O)[nH]2)c1
148 to 150 | O=C(O)C=Cc1ccccc1OCc1cccc(Br)c1
229 to 231 | Cc1sc(-c2ccco2)nc1C(=O)O
47 to 49 | CCOC(=O)NCCC(=O)O
99 to 101 | OCc1cnc(-c2ccco2)o1
260 to 262 | O=c1[nH]cnc2cc(F)ccc12
145 to 147 | COc1cccc(Cn2c(N)nc3ccccc32)c1
66 to 68 | OCCc1ccc2ccccc2c1
201 to 203 | O=C(O)c1cc(S(=O)(=O)N2CCOCC2)ccc1F
102 to 104 | CC(C)(C)OC(=O)N1CCC(O)(C(F)(F)F)C1 (stereo not drawn)

The next lines start with the compound.

Compound | melting point [°C]
NS(=O)(=O)c1cc([N+](=O)[O-])ccc1Br | 204 to 206
Cc1oc(C)c(C(=O)O)c1Br | 189 to 191
CNS(=O)(=O)c1ccc(Br)s1 | 59 to 61
COC(=O)c1sc2ncc(C=O)cc2c1C | 199 to 201
BrCc1cn(-c2ccccc2)nn1 | 111 to 113
Cn1c(=O)n(C)c2cc(S(N)(=O)=O)c(Br)cc21 | 314 to 316
O=[N+]([O-])c1ccc(NC2CCOc3ccccc32)cc1 (stereo not drawn) | 124 to 126
CS(=O)(=O)Cc1ccc(F)cc1CN | 77 to 79
O=C(O)c1cn(-c2ccccc2)nc1-c1ccccc1 | 202 to 204
Cc1cccc(Nc2nnc(S)s2)c1C | 195 to 197
NS(=O)(=O)N1CCC(OC(=O)C(F)(F)F)CC1 | 126 to 128
CC(N)c1ccc(N2CCOCC2)cc1 (stereo not drawn) | 61 to 63
O=C(O)c1cccc([N+](=O)[O-])c1Br | 184 to 186
COC(=O)C(CC(C)C)NC(N)=O (stereo not drawn) | 68 to 70
O=C(O)C1CCN(c2ncc(C(F)(F)F)cc2Cl)CC1 | 134 to 136
O=C(Nc1cc(Cl)ccc1Cl)C1CCCCN1 (stereo not drawn) | 127 to 129
CN(C)CCCNS(=O)(=O)c1ccc(Cl)c([N+](=O)[O-])c1 | 98 to 100
C1Cc2nnc(C3CCNCC3)n2C1 | 126 to 128
O=C(O)c1ccc2ccc(Cl)cc2n1 | 179 to 181
CC(O)c1cc(Cl)ccc1Cl (stereo not drawn) | 60 to 64
CNC(=O)CNc1cccc(OC)c1 | 78 to 80

Compound | melting point [°C]
O=C(O)c1ccc(Cn2cc(Cl)cn2)o1 | 117 to 119
N#Cc1ccc(SCCC(=O)O)cc1 | 86 to 88
NS(=O)(=O)c1ccc2c(c1)CC(C(=O)O)CO2 (stereo not drawn) | 213 to 215
Nc1noc(-c2ccccc2)n1 | 164 to 166
Cc1nc2ccccc2c(C)c1C(=O)O | 186 to 188
COC(=O)c1cc(S(=O)(=O)Cl)ccc1C | 44 to 46
COc1cccc(CNC(=O)C(C)Cl)c1 (stereo not drawn) | 89 to 91
Cc1ccc(CN2CCOCC2)cc1N | 125 to 127
Cc1nnc2n1CC(C(=O)O)CC2 (stereo not drawn) | 249 to 251
Nc1ccc2c(c1)COC2 | 89 to 91
CC(C)Oc1ccc(C(O)CN)cc1 (stereo not drawn) | 62 to 64
COCCn1c(C(=O)O)cc2ccccc21 | 139 to 141
NCc1ccc(Oc2ccc(F)cc2)nc1 | 51 to 53
NNC(=O)C(=O)NCc1ccco1 | 158 to 160
Cc1nn(C)c2nc(C(C)C)cc(C(=O)O)c12 | 211 to 213
CC(C)(C)Cc1cc(N)n(-c2ccccc2)n1 | 95 to 97
N#CCN1CCC(O)CC1 | 76 to 78
CCOC(=O)COc1ccc(O)cc1 | 121 to 123
Nc1cccc(NC(=O)Nc2cccc(C(F)(F)F)c2)c1 | 180 to 182
NCCNc1ccc(-c2ccccc2)nn1 | 113 to 115
CCS(=O)(=O)c1ccccc1C(=O)O | 49 to 53

Compound | melting point [°C]
COCCOc1ccc(CC#N)cc1 | 49 to 51
Cc1cc(C)cc(N2CCC(C(=O)O)C2=O)c1 (stereo not drawn) | 115 to 117
CCOc1ncccc1C(=O)O | 90 to 92
C1CCC(c2nnn[nH]2)CC1 | 109 to 111
CC(C)(C)c1cnc(S)s1 | 115 to 117
NC(=O)COc1ccc(C(=O)CCl)cc1 | 163 to 165
CC1(c2ccc3c(c2)OCCO3)NC(=O)NC1=O (stereo not drawn) | 180 to 182
O=C(c1ccc(F)cc1)c1cnc2ccccc2c1 | 89 to 91
Nc1cnn(-c2ccccn2)c1 | 79 to 81
CC(C(=O)O)N(C)c1nccn2cnnc12 (stereo not drawn) | 153 to 155
CN(C)CCNC(=O)Cc1ccc(N)cc1 | 145 to 147
Cn1nc(C2CCCCC2)cc1N | 169 to 171
Cc1noc(C)c1S(=O)(=O)NC1(C(=O)O)CCCC1 | 176 to 178
CC(Cl)C(=O)Nc1ccc(OCc2ccccc2)cc1 (stereo not drawn) | 141 to 145
Oc1ccc(-c2nc3ccccc3s2)cc1Cl | 186 to 188
c1csc(-c2nn[nH]n2)c1 | 201 to 203
N#Cc1c(C(F)(F)F)cc(=O)[nH]c1SCC(=O)O | 200 to 204
Cc1cc(Br)cc(C)c1N1CCCC1=O | 103 to 105
COc1ccc2[nH]c3c(c2c1)CCCC3 | 59 to 61
CC(=O)Nc1ccc(C)cc1N | 132 to 134
O=C(O)c1ccc(S(=O)(=O)NC2CC2)cc1 | 243 to 245

Compound | melting point [°C]
COC(=O)NC(C)(C)C(=O)O | 154 to 156
NCc1ccc(S(=O)(=O)N2CCOCC2)cc1 | 121 to 123
O=c1[nH]c2cc([N+](=O)[O-])ccc2o1 | 229 to 231
CCc1c(O)nc(S)n(-c2ccccc2OC)c1=O | 160 to 162
CS(=O)Cc1c(C(=O)O)sc2ccccc12 (stereo not drawn) | 183 to 185
O=C(O)Cc1csc(-c2ccc(Cl)s2)n1 | 136 to 138
Cc1ccccc1-n1c(C)nnc1S | 201 to 203
Nc1cccc(CS(=O)(=O)c2ccc(F)cc2F)c1 | 97 to 99
Cn1cccc1C=CC(=O)O | 153 to 155
Cc1nc2c(c(C)nn2C)c(C)c1CC(=O)O | 245 to 247
CCOc1cc(C=O)ccc1OCc1ccc(C(C)(C)C)cc1 | 113 to 115
CC(NC(=O)OC(C)(C)C)C(O)Cc1ccccc1 (stereo not drawn) | 116 to 118
Brc1cccc(-n2cnnn2)c1 | 90 to 92
CCc1cc(=O)c2ccccc2[nH]1 | 174 to 176
O=C(O)CSc1nccn1-c1ccc(Br)cc1 | 203 to 205
CCCc1ccc(N)c(C(=O)O)c1 | 116 to 118
O=C(Cc1ccccc1)C[N+](=O)[O-] | 48 to 50
c1ccc(NCc2cccs2)nc1 | 76 to 78
Cc1nc2ccccc2c(=O)n1-c1ccc(F)cc1 | 134 to 136
CC1=C(C)C(=O)NC1=O | 113 to 115
O=S(=O)(c1cccc(Br)c1)N1CCNCC1 | 97 to 101
